Data as given in patent US11364248B2 (AMGEN INC., priority 2017, dated 2022).

Each molecule was assayed on OPM-2 (assay: Cell Viability Assay (OPM-2 10 FBS)). Conditions: OPM-2 cells, 16 h, CellTiter-Glo, read-out: OPM-2 10% FBS IC50 IP.
Assay type: cell-based, human
Experimental: Cell Viability Assay (OPM-2 10 FBS)
The human multiple myeloma cell line, OPM-2, was cultured in complete growth medium containing RPMI 1640 and 10% fetal bovine serum (FBS). Cells were seeded into 384-well plates at 3000 cells/well density in complete growth medium containing 10% FBS, and incubated for 16 h with serially diluted test compounds in a 37° C. incubator with 5% CO2. Cell viability was tested using CellTiter-Glo® assay (Promega, Madison, Wis.) according to the manufacturer recommendations. Luminescence was determined using an EnVision® Multilabel plate reader 25 min after the addition of detection reagent. IC50 values were then calculated with Xlfit using a logistical 4-parameter fit model in GraphPad Prism (GraphPad Software, San Diego, Calif.) or in Genedata Screener® (Genedata, Basel, Switzerland).
In the case of `COCC[C@@H]1[C@@H](C)CCC[C@H]([C@H]2OC[C@@H](N(C)C)CO2)[C@@H]2CC[C@H]2CN2C[C@@]3(CCCc4cc(Cl)ccc43)COc3ccc(cc32)C(=O)NS1(=O)=O` (stereo in doubt) [Example 83], the IC50 is reported as 540 nM. `C[C@@H]1[C@@H](C)CCC[C@H]([C@H]2OC[C@@H](N(C)C)CO2)[C@@H]2CC[C@H]2CN2C[C@@]3(CCCc4cc(Cl)ccc43)COc3ccc(nc32)C(=O)NS1(=O)=O` (stereo in doubt) [Example 93, (1S,3′R,6′R,7′S,11′S,12′R)-6-chloro-7′-(cis-5-(dimethylamino)-1,3-dioxan-2-yl)-11′,12′-dimethyl-3,4-dihydro-2H,15′H-spiro[naphthalene-1,22′-[20]oxo[13]thia[1,14,25]triazatetracyclo [14.7.2.0~3,6~.0~19,24~]pentacosa[16,18,24]trien]-15′-one 13′,13′-dioxide] was tested, and the IC50 was 34 nM. For `C[C@@H]1[C@@H](C)CCC[C@H]([C@H]2OC[C@@H](N(C)C)CO2)[C@@H]2CC[C@H]2CN2C[C@@]3(CCCc4cc(Cl)ccc43)COc3ccc(nc32)C(=O)NS1(=O)=O` (stereo in doubt) [Example 94], the IC50 was 257 nM. `C[C@@H]1[C@@H](C)CCC[C@H]([C@H]2OC[C@@H](N(C)C)CO2)[C@@H]2CC[C@H]2CN2C[C@@]3(CCCc4cc(Cl)ccc43)COc3ccc(nc32)C(=O)NS1(=O)=O` (stereo in doubt) [Example 95] showed an IC50 of 108 nM. Molecule `C[C@@H]1[C@@H](C)CCC[C@H]([C@H]2OC[C@@H](N3CCC3)CO2)[C@@H]2CC[C@H]2CN2C[C@@]3(CCCc4cc(Cl)ccc43)COc3ccc(cc32)C(=O)NS1(=O)=O` [Example 20, (1S,3′R,6′R,7′S,11′S,12′R)-7′-(cis-5-(1-azetidinyl)-1,3-dioxan-2-yl)-6-chloro-11′,12′-dimethyl-3,4-dihydro-2H,15′H-spiro[naphthalene-1,22′-[20]oxa[13]thia[1,14]diazatetracyclo [14.7.2.0~3,6~.0~19,24~]pentacosa[16,18,24]trien]-15′-one 13′,13′-dioxide] has an IC50 of 41 nM. `C[C@@H]1[C@@H](C)CCC[C@H]([C@H]2OC[C@@H](N3CCC3)CO2)[C@@H]2CC[C@H]2CN2C[C@@]3(CCCc4cc(Cl)ccc43)COc3ccc(cc32)C(=O)NS1(=O)=O` [Example 21, (1S,3′R,6′R,7′S,11′S,12′R)-7′-(cis-5-(1-azetidinyl)-1,3-dioxan-2-yl)-6-chloro-11′,12′-dimethyl-3,4-dihydro-2H,15′H-spiro[naphthalene-1,22′-[20]oxa[13]thia[1,14]diazatetracyclo [14.7.2.0~3,6~.0~19,24~]pentacosa[16,18,24]trien]-15′-one 13′,13′-dioxide] was tested, and the IC50 was 521 nM. Molecule `C[C@@H]1[C@@H](C)CCC[C@H]([C@H]2OC[C@@H](N3CC(F)(F)C3)CO2)[C@@H]2CC[C@H]2CN2C[C@@]3(CCCc4cc(Cl)ccc43)COc3ccc(cc32)C(=O)NS1(=O)=O` [Example 31, (1S,3′R,6′R,7′S,11′S,12′R)-6-chloro-7′-(cis-5-(3,3-difluoro-1-azetidinyl)-1,3-dioxan-2-yl)-11′,12′-dimethyl-3,4-dihydro-2H,15′H-spiro[naphthalene-1,22′-[20]oxa[13]thia[1,14]diazatetracyclo [14.7.2.0~3,6~.0~19,24~]pentacosa[16,18,24]trien]-15′-one 13′,13′-dioxide] has an IC50 of 204 nM. `C[C@@H]1[C@@H](C)CCC[C@H]([C@H]2OC[C@@H](N3CC(F)(F)C3)CO2)[C@@H]2CC[C@H]2CN2C[C@@]3(CCCc4cc(Cl)ccc43)COc3ccc(cc32)C(=O)NS1(=O)=O` [Example 32, (1S,3′R,6′R,7′S,11′S,12′R)-6-chloro-7′-(cis-5-(3,3-difluoro-1-azetidinyl)-1,3-dioxan-2-yl)-11′,12′-dimethyl-3,4-dihydro-2H,15′H-spiro[naphthalene-1,22′-[20]oxa[13]thia[1,14]diazatetracyclo [14.7.2.0~3,6~.0~19,24~]pentacosa[16,18,24]trien]-15′-one 13′,13′-dioxide] was tested, and the IC50 was 1940 nM. `COC1CN([C@H]2CO[C@@H]([C@H]3CCC[C@H](C)[C@@H](C)S(=O)(=O)NC(=O)c4ccc5c(c4)N(C[C@@H]4CC[C@H]43)C[C@@]3(CCCc4cc(Cl)ccc43)CO5)OC2)C1` [Example 52, (1S,3′R,6′R,7′S,11′S,12′R)-6-chloro-7′-(cis-5-(3-methoxy-1-azetidinyl)-1,3-dioxan-2-yl)-11′,12′-dimethyl-3,4-dihydro-2H,15′H-spiro[naphthalene-1,22′-[20]oxa[13]thia[1,14]diazatetracyclo [14.7.2.0~3,6~.0~19,24~]pentacosa[16,18,24]trien]-15′-one 13′,13′-dioxide] was tested, and the IC50 was 59 nM. `COC1CN([C@H]2CO[C@@H]([C@H]3CCC[C@H](C)[C@@H](C)S(=O)(=O)NC(=O)c4ccc5c(c4)N(C[C@@H]4CC[C@H]43)C[C@@]3(CCCc4cc(Cl)ccc43)CO5)OC2)C1` [Example 53, (1S,3′R,6′R,7′S,11′S,12′R)-6-chloro-7′-(cis-5-(3-methoxy-1-azetidinyl)-1,3-dioxan-2-yl)-11′,12′-dimethyl-3,4-dihydro-2H,15′H-spiro[naphthalene-1,22′-[20]oxa[13]thia[1,14]diazatetracyclo [14.7.2.0~3,6~.0~19,24~]pentacosa[16,18,24]trien]-15′-one 13′,13′-dioxide] showed an IC50 of 184 nM. For `COC1CN([C@H]2CO[C@@H]([C@H]3CCC[C@H](C)[C@@H](C)S(=O)(=O)NC(=O)c4ccc5c(c4)N(C[C@@H]4CC[C@H]43)C[C@@]3(CCCc4cc(Cl)ccc43)CO5)OC2)C1` [Example 54, (1S,3′R,6′R,7′S,11′S,12′R)-6-chloro-7′-(cis-5-(3-methoxy-1-azetidinyl)-1,3-dioxan-2-yl)-11′,12′-dimethyl-3,4-dihydro-2H,15′H-spiro[naphthalene-1,22′-[20]oxa[13]thia[1,14]diazatetracyclo [14.7.2.0~3,6~.0~19,24~]pentacosa[16,18,24]trien]-15′-one 13′,13′-dioxide], the IC50 was 547 nM. With `CCN(CC)[C@H]1CO[C@@H]([C@H]2CCC[C@H](C)[C@@H](C)S(=O)(=O)NC(=O)c3ccc4c(c3)N(C[C@@H]3CC[C@H]32)C[C@@]2(CCCc3cc(Cl)ccc32)CO4)OC1` [Example 57, (1S,3′R,6′R,7′S,11′S,12′R)-6-chloro-7′-(cis-5-(diethylamino)-1,3-dioxan-2-yl)-11′,12′-dimethyl-3,4-dihydro-2H,15′H-spiro[naphthalene-1,22′-[20]oxa[13]thia[1,14]diazatetracyclo [14.7.2.0~3,6~.0~19,24~]pentacosa[16,18,24]trien]-15′-one 13′,13′-dioxide] the IC50 was 164 nM. Work on `CCN(CC)[C@H]1CO[C@@H]([C@H]2CCC[C@H](C)[C@@H](C)S(=O)(=O)NC(=O)c3ccc4c(c3)N(C[C@@H]3CC[C@H]32)C[C@@]2(CCCc3cc(Cl)ccc32)CO4)OC1` [Example 58, (1S,3′R,6′R,7′S,11′S,12′R)-6-chloro-7′-(cis-5-(diethylamino)-1,3-dioxan-2-yl)-11′,12′-dimethyl-3,4-dihydro-2H,15′H-spiro[naphthalene-1,22′-[20]oxa[13]thia[1,14]diazatetracyclo [14.7.2.0~3,6~.0~19,24~]pentacosa[16,18,24]trien]-15′-one 13′,13′-dioxide] yielded an IC50 of 512 nM.
